Measured values as given in PubChem BioAssay AID488890 (Southern Research Specialized Biocontainment Screening …, 2010).
Records with an inconclusive call do not appear. The source made the active and inactive calls. The rule behind the calls is not given here.

system: Mycobacterium tuberculosis non-replicating, growth inhibition; test: growth inhibition of non-replicating M. tuberculosis (AID 488890)

Structure (SMILES) | IC50
CCOC(=O)c1c(NC(=O)COC(=O)c2ccccn2)sc2c1CCC2 | 7.87 µM
Cc1ccc(C(=O)c2cncc(Br)c2)cc1 | 9.3 µM
CSc1ccc(N=Nc2c(C)[nH]n(C)c2=O)cc1 | 20.6 µM (inactive)
CCOc1ccc(OCC(=O)OCc2cc(=O)n3cc(Br)ccc3n2)cc1 | 8.96 µM
O=C(Nc1ccc(Cl)cc1Cl)c1cccc(N2C(=O)C=CC2=O)c1 | 11.6 µM (inactive)
COc1cccc(NC(=O)COC(=O)Cc2ccc(Br)cc2)c1 | 12.7 µM (inactive)
CN(C)CCCNc1nc2sc3c(c2c(=O)n1CCc1ccccc1)CCCCC3 | 12 µM (inactive)
CCOC(=O)COc1cc([N+](=O)[O-])cc2cccnc12 | 25.5 µM (inactive)
O=C(COc1ccc2c(c1)CCC2)Nc1ccccn1 | 11.6 µM (inactive)
O=[N+]([O-])c1cncc([N+](=O)[O-])c1Nc1ccccc1Cl | 5.36 µM
CSCCOC(=O)COc1ccc(/C=N/NC(=O)c2c(Cl)cnn2C)cc1 | 8.85 µM
O=C(N/N=C/c1ccc([N+](=O)[O-])s1)c1ccncc1 | 1.77 µM
COc1cccc2sc(Nc3nnc(-c4ccc(F)cc4)o3)nc12 | 2.67 µM
O=C(Nc1nccs1)c1ccccn1 | 14.5 µM (inactive)
CC1(C(=O)NC(=S)NNC(=O)c2ccncc2)CCCCC1 | 0.94 µM
O=C(COc1ccccc1)Nc1nnc(-c2ccc(Cl)cc2)o1 | 21.9 µM (inactive)
O=C1c2cccc3c([N+](=O)[O-])ccc(c23)C(=O)N1c1ccccn1 | 4.86 µM
Cc1ccc(C(=O)N/N=C/c2ccc([N+](=O)[O-])s2)cc1 | 2.14 µM
O=C(N/N=C/c1ccccc1O)c1cccc(C(F)(F)F)c1 | < 0.1 µM
COc1ccc(OCC(=O)Nc2ccc(N3CCN(C(=O)c4ccco4)CC3)cc2)cc1 | 20.8 µM (inactive)
COC(=O)COc1ccc2cc(-c3ccc(OC)cc3)c(=O)oc2c1 | 1.41 µM
O=C(OCc1ccc([N+](=O)[O-])cc1)c1cc2ccccc2oc1=O | 12.5 µM (inactive)
O=C(COC(=O)c1ccc(O)cc1O)c1ccc2c(c1)OCO2 | 25.9 µM (inactive)

Structure (SMILES) | IC50
O=C(Nc1nnc(-c2ccc(F)cc2)o1)c1cc(Cl)sc1Cl | 7.95 µM
CSc1nn(-c2ccc(C(=O)OCC(=O)NC(=O)NC(C)C)cc2)c(=S)s1 | 16 µM (inactive)
O=S(=O)(Nc1ccc(O)c2ccccc12)c1ccc(F)cc1 | 6.47 µM
CN(C)CCNc1c2c(c(C#N)c3nc4ccccc4n13)CCCC2 | 14.5 µM (inactive)
COc1ccccc1OCCN1CSC(=S)N(C)C1 | 8.14 µM
O=C(N/N=C/C=C/c1ccccc1)c1ccccn1 | 7.93 µM
CCOC(=O)c1c(C)[nH]c(C)c1C(=O)COC(=O)c1ccc([N+](=O)[O-])s1 | 1.65 µM
Cc1ccc(CSc2nnc(-c3cccnc3)o2)cc1 | 1.49 µM
FC(F)(Cl)c1nnc2ccc(Cl)nn12 | 1.38 µM
Cc1cc(C(=O)COc2cccc3cccnc23)c(C)n1C | 5.1 µM
CC(C)(C)OC(=O)N/N=C\c1ccc(OC(=O)c2ccco2)cc1 | 12.6 µM (inactive)
CN(CCOCCOc1ccc(F)cc1)Cc1ccccc1 | 10.9 µM (inactive)
Cc1ccc(-n2nnnc2CNC(=O)c2ccc([N+](=O)[O-])o2)cc1C | 24.2 µM (inactive)
COc1ccc(OC(=O)c2cc3ccccc3o2)cc1 | 18.4 µM (inactive)
COc1cccc2sc(N3CCN(C(=O)c4ccc([N+](=O)[O-])o4)CC3)nc12 | < 0.1 µM
CN1C(=O)CC(Sc2ccccc2C(=O)O)C1=O (centres undefined) | 23.6 µM (inactive)
Cc1ccc(C(=O)N/N=C\c2ccc([N+](=O)[O-])s2)cn1 | 3.36 µM
Oc1ccc(Cl)cc1CNCc1ccc(F)cc1 | 11.1 µM (inactive)
CCOC(=O)C(Nc1ccc2ccccc2c1)C(=O)OCC | 7.7 µM
Cc1ccccc1NCC(=O)N/N=C\c1ccc([N+](=O)[O-])s1 | 3.57 µM
NC(=O)N/N=C/c1ccccc1OC(=O)c1cc2ccccc2oc1=O | 3.77 µM
COC(=O)CCc1nc2c(C#N)c(-c3ccc(Cl)cc3)ccn2n1 | 24.3 µM (inactive)
Cc1ccc(CCC(=O)Nc2ccc([N+](=O)[O-])cc2)o1 | 15.1 µM (inactive)

Structure (SMILES) | IC50
Cc1ccc(-n2sc3ccccc3c2=O)cc1 | 14.3 µM (inactive)
COc1ccc(C(=O)C2CCCN(C(=O)c3ccc(CSC)o3)C2)cc1F (centres undefined) | 42.2 µM (inactive)
O=C(Nc1c(F)cc(F)cc1Br)c1cc(-c2ccccc2)on1 | 6.29 µM
COc1cccc2cc(-c3nc4ccccc4[nH]3)c(=O)oc12 | < 0.2 µM
COC(=O)c1ccc(Sc2nnnn2-c2ccccc2)c([N+](=O)[O-])c1 | 7.81 µM
COc1ccc2cc(C(=O)NCc3ccccc3CN3CCCC3)ccc2c1 | 17.7 µM (inactive)
Clc1ccc(CN2C3=NCCCN3c3ccccc32)cc1 | 12.3 µM (inactive)
Nn1c(SCCOc2ccc(Cl)cc2)nnc1-c1cccnc1 | 23.5 µM (inactive)
CCCN(CCC)S(=O)(=O)c1ccc(C(=O)Nc2nnc(-c3cccc(OC)c3)o2)cc1 | 11.3 µM (inactive)
Cc1ccc(NC(=O)CN(C)CC(=O)Nc2ccc(F)c(Cl)c2)cc1 | 26.5 µM (inactive)
O=C(OCc1c(Cl)cccc1Cl)c1ccccn1 | 6.6 µM
CCOc1ccc(Nc2cc(C)nc(-n3nc(C)cc3C)n2)cc1 | 3.32 µM
O=C(Nc1nc2ccc(F)cc2s1)c1ccccn1 | 0.11 µM
Cn1nnnc1N=N/C(=N/Nc1ccccc1)c1ccccc1 | 6.47 µM
CCCCNS(=O)(=O)c1ccc(OCC(=O)OC)cc1 | 15.6 µM (inactive)
CCOC(=O)c1cc(COc2cc(Cl)cc(Cl)c2)on1 | 0.59 µM
O=C(CCS(=O)(=O)c1ccc(Cl)cc1)Oc1ccc2c(c1)OCO2 | 22.7 µM (inactive)
O=C(CCN1CCOCC1)c1ccc(Cl)cc1 | 7.01 µM
O=C(N/N=C/c1cc([N+](=O)[O-])ccc1O)C12CC3CC(CC(C3)C1)C2 | 1.15 µM
Cc1ccc(CNC(=O)c2ccc([N+](=O)[O-])o2)cc1 | 0.46 µM
Cc1nc(C(=O)NNC(=O)c2ccc(Cl)cc2)c(C(F)(F)F)o1 | 13.9 µM (inactive)
CCOC(=O)c1sc2nc(CSc3ccccc3)nc(NCCN(C)C)c2c1C | 14.9 µM (inactive)
CCOC(=O)c1ccc(N=C2SC(C(=O)Nc3ccc(C(=O)O)cc3)CC(=O)N2Cc2cccs2)cc1 (centres undefined) | 35.1 µM (inactive)

Structure (SMILES) | IC50
CCCNC(=O)NC(=O)COc1ccc2oc3ccccc3c2c1 | 5.09 µM
CCC(=O)c1ccc(OCC(=O)OCC(=O)c2cc(C)n(C3CC3)c2C)cc1 | 7.97 µM
O=C(NNC(=O)c1cnccn1)c1ccc(Cl)c(Cl)c1 | 3.23 µM
Cc1ccc(-c2nnc(NC(=O)c3ccco3)o2)c(C)c1 | 6.85 µM
COc1ccc(C(=O)N/N=C(\C)c2ccccn2)cc1OC | 4.92 µM
Clc1ccc2c(c1)C(N1CCNCC1)Cc1ccccc1S2 (centres undefined) | 15.2 µM (inactive)
CC(C)CN1C(=O)/C(=C(/C#N)C(=O)NC2CCCCC2)c2ccccc21 | 25.9 µM (inactive)
Cc1nc2ccc(OC(=O)c3ccccc3)cc2s1 | 20.9 µM (inactive)
CC1=NN(C(=O)c2ccoc2C)C(O)(C(F)(F)F)C1 (centres undefined) | 1.63 µM
Cc1ccc(/C(O)=C/c2nc3ccccc3oc2=O)cc1 | 4.77 µM
O=C(N/N=C/c1ccc([N+](=O)[O-])s1)c1ccccc1 | 5.44 µM
CC(=O)c1ccc(Sc2nnnn2-c2ccccc2)c([N+](=O)[O-])c1 | 19.4 µM (inactive)
CCN(Cc1ccccc1)c1ccc(/C=N/N=C(N)N)cc1 | 5.74 µM
Cc1ccc(NC(=O)COc2ccc(-n3ccnc3)cc2)cc1Cl | 6.44 µM
COc1ccc2c(c1)C(=C(C#N)C#N)C(=O)N2CCc1ccccc1 | 25 µM (inactive)
O=c1cc2[nH]c3ccccc3c(=O)n2nc1-c1ccccc1 | 7.1 µM
COc1ccccc1CCNC(=O)c1ccc(C)o1 | 2.96 µM
CC(C)(C)c1cc(CN2CCC(O)CC2)cc(C(C)(C)C)c1O | 6.92 µM
COC(=O)COc1ccc(S(=O)(=O)N2CCCCCC2)cc1 | 4.19 µM
O=C(COc1ccc(Cl)cc1)NNC(=O)c1ccccn1 | 12.1 µM (inactive)
N/C(=N\OC(=O)CC1CCCCC1)c1ccncc1 | 6.38 µM
O=C(c1nnc(-c2ccc(Cl)cc2)o1)C1CCCC1 | 11.4 µM (inactive)
CCc1ccc(N2CCN(CCNC(=O)Nc3ccc(OC)cc3)CC2)cc1 | 17.7 µM (inactive)

Structure (SMILES) | IC50
CCOc1ccc(NC(=O)CCC(=O)N/N=C/c2ccc([N+](=O)[O-])s2)cc1 | 8.29 µM
O=C(CN1CCCCC1)Nc1nnc(-c2ccc([N+](=O)[O-])cc2)s1 | 11.7 µM (inactive)
CCOc1ccc(NC(=O)COc2ccc3c(c2)OCO3)cc1 | 10.6 µM (inactive)
COc1cc(/C=N/N(C)C)ccc1OC(=O)c1cccs1 | 8.4 µM
CN(CCS(=O)(=O)c1ccc(Cl)cc1)Cc1cccnc1 | 13.2 µM (inactive)
Cc1nc([N+](=O)[O-])c(Br)n1CC(=O)c1ccccc1 | 25.5 µM (inactive)
Cc1ccc(/C=N/NC(=O)c2ccncc2)s1 | 1.43 µM
CCOc1cccc(CNCCc2c(C)[nH]c3ccc(OC(F)(F)F)cc23)c1O | 9.79 µM
Cc1ccnc(-n2c(C)cc(/C=C3\C(=O)NC(=S)N(C)C3=O)c2C)c1 | 25.7 µM (inactive)
O=C(Cc1ccccc1)Nc1ccc(C(=O)NCC2COc3ccccc3O2)cc1 (centres undefined) | 28.3 µM (inactive)
CN1C(=O)NC(=O)/C(=C/c2ccc([N+](=O)[O-])s2)C1=O | 10.3 µM (inactive)
CN(C)c1nc(-c2ccccn2)nnc1-c1ccccc1 | 9.74 µM
COCCNC(=O)c1cc2cc(Cl)cc(Cl)c2oc1=O | 3.67 µM
Nc1c(Cl)cc(Cl)cc1C(=O)OCC(=O)N1CCCC1 | 2.46 µM
CCOc1ccc(C(=O)N/N=C(/C)C2C(=O)c3ccccc3C2=O)cc1 | 0.47 µM
CCOC(=O)C1=C(C)C/C(=N\NC(=O)c2ccccc2O)CC1 | 4.22 µM
C=C(C)C1Cc2c(C)nn(-c3nc(C)cc(C)n3)c2C1 (centres undefined) | 11.6 µM (inactive)
O=C1Nc2cc(C(=O)NCCN3CCCCCC3)ccc2S/C1=C\c1ccccc1 | 12.5 µM (inactive)
NCCNc1ccc([N+](=O)[O-])c2cccnc12 | 4.89 µM
COc1cccc(/C=N/N2C(=O)CSC2=S)c1O | 23.9 µM (inactive)
Clc1ccc(SCCCCN2CCNCC2)cc1 | 39.3 µM (inactive)
CCN1C(=O)CC(N2CCC(c3nc4ccccc4[nH]3)CC2)C1=O (centres undefined) | 34.2 µM (inactive)
